Data on 25 compounds can be found in patent US4198502A, “Aminopyrrole derivatives” (Gruppo Lepetit S.p.A., priority 1973, dated 1980).

Data set [1] has as its system carrageenin-induced edema. Nature of the data set: carrageenin-induced edema test in rats (anti-inflammatory). The format is in vivo. Particulars: Rattus norvegicus, po, read-out: % Decrease of the induced edema; for inhibition in vivo at 20 mg/kg: 20 mg/kg p.o.; for inhibition in vivo at 50 mg/kg: 50 mg/kg p.o.; for inhibition in vivo at 100 mg/kg: 100 mg/kg p.o.; for inhibition in vivo at 200 mg/kg: 200 mg/kg p.o.; for inhibition in vivo at 5 mg/kg: 5 mg/kg p.o.; for inhibition in vivo at 10 mg/kg: 10 mg/kg p.o. The method, then:
(§1) An aspect of the anti-inflammatory utility was evidenced by means of the carrageenin-induced edema test in rats, which was performed according to the methodology described by C. A. Winter et al., Proc. Soc. Exptl. Biol. Med., 111, 544, 1962. […] It is also to be noted that the toxicities of the aminopyrrole derivatives which are the object of the present invention are very low; with few exceptions, their LD50 values are always higher than 1000 mg/kg p.o. in mice. Toxicities were determined according to the procedure described by Lichtfield and Wilcoxon, J. Pharm. Exp. Therm., 96, 99, 1949.
The following Table summarizes the aforementioned anti-inflammatory action and LD50 values.
(In general: In the carrageenan paw model, swelling and tenderness develop within hours.)

Data set [2] in a line: acute toxicity (LD50), procedure of Lichtfield and Wilcoxon. Particulars: mouse, in vivo, po, mice. The method, then:
as §1

Data set [3] is described as follows: CNS-depressant utility, general method of S. Irwin. The settings on record: in vivo. The text has this:
This characteristic was investigated according to the general method proposed by S. Irwin, Psychopharmacologia (Berl.), 13, 222, 1968. […] This is undoubtedly another vary favorable characteristic of the inventive compounds, as a certain sedative and myorelaxing effect is useful in patients affected by severe inflammatory disease.

Some results are limits rather than exact numbers.

What is called LD50 is the dose expected to kill half of the subjects tested. Read a low LD50 as greater toxicity.

Regarding `CCC(=O)c1c(C)[nH]c(-c2ccccc2)c1N` [Example 21, 3-Amino-5-methyl-2-phenyl-4-propionylpyrrole], in data set [1], the inhibition in vivo at 20 mg/kg is 25.3%, the inhibition in vivo at 50 mg/kg was found to be 36% and the inhibition in vivo at 100 mg/kg is 43%. Also, in data set [2], the LD50 stood at 500 mg/kg.
Take `CC(=O)c1c(C)[nH]c(-c2ccccc2C)c1N` [Example 29, 4-Acetyl-3-amino-2-(o-tolyl)-5-methylpyrrole]: in data set [1], the inhibition in vivo at 50 mg/kg came to 26.4%, the inhibition in vivo at 100 mg/kg worked out at 33.8% and the inhibition in vivo at 200 mg/kg is 42.6%. The same compound yielded an LD50 in data set [2] above 1000 mg/kg.
For the compound `CCOC(=O)c1c(N)c[nH]c1C.Cl` [Example 19, 3-Amino-4-carbethoxy-5-methylpyrrole hydrochloride], in data set [1], the inhibition in vivo at 50 mg/kg worked out at 24.3% and the inhibition in vivo at 100 mg/kg was 45.9%. The same compound returned an LD50 in data set [2] of 500 mg/kg.
In the case of `Cc1[nH]c(-c2ccccc2)c(N)c1C(=O)c1ccccc1` [Example 3, 3-Amino-4-benzoyl-5-methyl-2-phenylpyrrole], in data set [1], the inhibition in vivo at 100 mg/kg is 40.6% and the inhibition in vivo at 200 mg/kg came out at 53.9%. In data set [2], this compound gave an LD50 above 1000 mg/kg.
The corresponding values for `CC(=O)c1c(N=Cc2ccccc2)c(-c2ccccc2)n(C)c1C` [Example 49a, 4-acetyl-3-benzylideneamino-1,5-dimethyl-2-phenylpyrrole] are 31%, 53.1% and above 1000 mg/kg.
For `CC(=O)c1c(C)[nH]c(-c2ccccc2)c1N(C)C` [Example 43, 4-Acetyl-3-dimethylamino-5-methyl-2-phenylpyrrole], in that order: 25.3%, 45.6% and above 1000 mg/kg.
`CCCC(=O)c1c(CCC)[nH]c(-c2ccccc2)c1N.Cl` [Example 34, 3-Amino-4-butyryl-2-phenyl-5-propylpyrrole hydrochloride]: in data set [1], the inhibition in vivo at 50 mg/kg was 39.1%, the inhibition in vivo at 100 mg/kg came out at 50% and the inhibition in vivo at 200 mg/kg was found to be 61.3%. The compound further had an LD50 in data set [2] of around 1000 mg/kg.
For `CC(=O)c1c(C)[nH]c(-c2ccccc2)c1N=Cc1ccc(Cl)cc1` [Example 45, 4-Acetyl-3-(p-chlorobenzylideneamino)-5-methyl-2-phenylpyrrole], in that order: 23.9%, 47.9%, 68.2% and above 1000 mg/kg.
For `COC(=O)c1c(C(N)=O)[nH]c(-c2ccccc2)c1N` [Example 55, 3-Amino-5-carbamoyl-4-carbomethoxy-2-phenyl-pyrrole], in that order: 27.1%, 41.4%, 56.3% and 1000 mg/kg.
With `CCCC(=O)c1c(C)[nH]c(-c2ccccc2)c1N.Cl` [Example 35, 3-Amino-4-butyryl-5-methyl-2-phenylpyrrole hydrochloride], in data set [1], the inhibition in vivo at 50 mg/kg was determined as 32.4% and the inhibition in vivo at 100 mg/kg is 42%. This compound also yielded an LD50 in data set [2] of 500 mg/kg.
As to `CC(=O)c1c(N)c(-c2ccccc2)n(C)c1C` [Example 49b, 4-Acetyl-3-amino-1,5-dimethyl-2-phenyl-pyrrole], in data set [1], the inhibition in vivo at 50 mg/kg was 11%, the inhibition in vivo at 100 mg/kg amounted to 34.3% and the inhibition in vivo at 200 mg/kg is 52.7%. In data set [2], this compound showed an LD50 above 1000 mg/kg.
`CC(=O)c1c(N(C)C)c(-c2ccccc2)n(Cc2ccccc2Cl)c1C` [Example 53, 4-Acetyl-1-(o-chlorobenzyl)-5-methyl-3-dimethylamino-2-phenylpyrrole]: in data set [1], the inhibition in vivo at 100 mg/kg stood at 30% and the inhibition in vivo at 200 mg/kg worked out at 37.1%. The LD50 in data set [2] was above 1000 mg/kg.
Regarding `CCOC(=O)c1c(C)[nH]c(-c2ccc(C)cc2)c1N.Cl` [Example 15, 3-Amino-4-carbethoxy-5-methyl-2-(p-tolyl)-pyrrole hydrochloride], in data set [1], the inhibition in vivo at 50 mg/kg stood at 29.6%, the inhibition in vivo at 100 mg/kg was determined as 40.8% and the inhibition in vivo at 200 mg/kg turned out to be 58.3%. Moreover, the “sedative and myorelaxing activity” value in data set [3] was “good degree of sedative and myorelaxing activity”. Also, the LD50 in data set [2] is above 1000 mg/kg.
Take `CC(=O)c1c(N(C)C)c(-c2ccccc2)n(Cc2ccc(Cl)cc2)c1C` [Example 54, 4-Acetyl-1-(p-chlorobenzyl)-5-methyl-3-dimethylamino-2-phenylpyrrole]: in data set [1], the inhibition in vivo at 100 mg/kg was found to be 38% and the inhibition in vivo at 200 mg/kg was found to be 47.6%. In data set [2], this compound came in with an LD50 above 1000 mg/kg.
Take `COc1ccc(-c2[nH]c(C)c(C(C)=O)c2N)cc1` [Example 14, 4-Acetyl-3-amino-2-(p-methoxyphenyl)-5-methylpyrrole]: in data set [1], the inhibition in vivo at 5 mg/kg stood at 23%, the inhibition in vivo at 10 mg/kg came to 31.1%, the inhibition in vivo at 20 mg/kg was 35.1% and the inhibition in vivo at 50 mg/kg was 41.9%. Moreover, in data set [1], the inhibition in vivo at 100 mg/kg was found to be 55.4% and the inhibition in vivo at 200 mg/kg stood at 67.6%. The same compound registered an LD50 in data set [2] above 1000 mg/kg.
As for `CC(=O)c1c(C)[nH]c(-c2ccc(Cl)cc2)c1N` [Example 26, 4-Acetyl-3-amino-2-(p-chlorophenyl)-5-methylpyrrole], in data set [1], the inhibition in vivo at 20 mg/kg is 29.2%, the inhibition in vivo at 50 mg/kg was 43.1%, the inhibition in vivo at 100 mg/kg worked out at 58.5% and the inhibition in vivo at 200 mg/kg was determined as 71%. Also, in data set [2], the LD50 is above 1000 mg/kg.
On to `CCOC(=O)c1c(C)[nH]c(-c2ccccc2)c1N.Cl` [Example 2, 3-Amino-4-carbethoxy-5-methyl-2-phenylpyrrole hydrochloride], for which, in data set [1], the inhibition in vivo at 100 mg/kg came to 36.5% and the inhibition in vivo at 200 mg/kg was 44.3%. The compound also returned an LD50 in data set [2] above 1000 mg/kg.
Consider `CC(=O)c1c(C)[nH]c(-c2ccc(F)cc2)c1N` [Example 17, 4-Acetyl-3-amino-2-(p-fluorophenyl)-5-methylpyrrole], for which, in data set [1], the inhibition in vivo at 100 mg/kg was 35.4% and the inhibition in vivo at 200 mg/kg stood at 47.9%. The compound further had an LD50 in data set [2] above 1000 mg/kg.
On to `COc1ccc(C(=O)c2c(C)[nH]c(-c3ccccc3)c2N)cc1` [Example 24, 3-Amino-4-(p-methoxybenzoyl)-5-methyl-2-phenylpyrrole], for which, in data set [1], the inhibition in vivo at 20 mg/kg was determined as 20.6%, the inhibition in vivo at 50 mg/kg stood at 32.3% and the inhibition in vivo at 100 mg/kg turned out to be 42.2%. Moreover, the LD50 in data set [2] stood at 500 mg/kg.
For `CC(=O)c1c(C)[nH]c(-c2ccc(C)cc2)c1N` [Example 13, 4-Acetyl-3-amino-5-methyl-2-(p-tolyl)-pyrrole], in data set [1], the inhibition in vivo at 5 mg/kg came to 23.2%, the inhibition in vivo at 10 mg/kg was found to be 31.9%, the inhibition in vivo at 20 mg/kg stood at 43.5% and the inhibition in vivo at 50 mg/kg was found to be 50.7%. In data set [1], the inhibition in vivo at 100 mg/kg is 69.6% and the inhibition in vivo at 200 mg/kg turned out to be 75.4%. Besides, the LD50 in data set [2] is above 1000 mg/kg.
With `CNC(=O)c1c(C)[nH]c(-c2ccccc2)c1N.Cl` [Example 31, 3-Amino-5-methyl-4-methylcarbamoyl-2-phenylpyrrole hydrochloride], in data set [1], the inhibition in vivo at 50 mg/kg worked out at 26.1%, the inhibition in vivo at 100 mg/kg was found to be 34.8% and the inhibition in vivo at 200 mg/kg worked out at 42%. The LD50 in data set [2] was around 1000 mg/kg.
For `CC(=O)c1c(C)[nH]c(-c2ccccc2)c1N.Cl` [Example 1, 4-Acetyl-3-amino-5-methyl-2-phenylpyrrole hydrochloride], in data set [1], the inhibition in vivo at 5 mg/kg is 23.4%, the inhibition in vivo at 10 mg/kg was 32.5%, the inhibition in vivo at 20 mg/kg amounted to 39% and the inhibition in vivo at 50 mg/kg worked out at 43.8%. Moreover, in data set [1], the inhibition in vivo at 100 mg/kg came to 58.9% and the inhibition in vivo at 200 mg/kg came out at 76.6%. In data set [3], the “sedative and myorelaxing activity” value is “good degree of sedative and myorelaxing activity”. The LD50 in data set [2] was above 1000 mg/kg.
In the case of `CCOC(=O)c1c[nH]c(-c2ccccc2)c1N.Cl` [Example 6, 3-Amino-4-carbethoxy-2-phenylpyrrole hydrochloride], in data set [1], the inhibition in vivo at 100 mg/kg turned out to be 25.7% and the inhibition in vivo at 200 mg/kg is 35%. In data set [2], this compound showed an LD50 above 1000 mg/kg.
Regarding `CC(=O)c1c(C)[nH]c(-c2ccccc2)c1N=Cc1ccccc1` [Example 46, 4-Acetyl-3-benzylideneamino-5-methyl-2-phenylpyrrole], in data set [1], the inhibition in vivo at 20 mg/kg is 23.9%, the inhibition in vivo at 50 mg/kg came out at 35.2%, the inhibition in vivo at 100 mg/kg stood at 47.9% and the inhibition in vivo at 200 mg/kg was determined as 69%. Besides, in data set [2], the LD50 is above 1000 mg/kg.
For `Cc1[nH]c(-c2ccccc2)c(N)c1C(=O)C(C)C` [Example 20, 3-Amino-4-isobutyryl-5-methyl-2-phenylpyrrole], in data set [1], the inhibition in vivo at 50 mg/kg was 24.2%, the inhibition in vivo at 100 mg/kg amounted to 37.3% and the inhibition in vivo at 200 mg/kg was found to be 44.9%. In data set [2], the LD50 was above 1000 mg/kg.
